{"source": "patent US9259418B2", "about": "(priority 2008, dated 2016)", "key": {"[1]": {"system": "MPTP treated mice", "experiment": "Striatal dopamine levels in MPTP treated mice (HPLC)", "format": "in vivo", "details": "for dose required to restore dopamine levels when administered alone: MPTP challenged mice, data not shown", "method": "Striatum tissue samples were homogenized in ice in 500 ul homogenization buffer (0.1M perchloric acid, 0.02% EDTA and 1% ETOH) using OMNI Tip homogenizing kit of OMNI International (intermediate speed, 3×10 seconds with 5 seconds intervals). The homogenates were sonicated for 5 minutes then centrifuged at 15,000 RPM at 4° C. for 15 min. The supernatants were transferred into fresh tubes and Dopamine content was analyzed by HPLC.\nSaline-injected mice are used as control (naïve mice)."}, "[2]": {"system": "MPTP treated mice", "experiment": "Locomotion activity by Rota rod in MPTP treated mice", "format": "in vivo", "details": "day 5, MPTP alone", "method": "Saline-injected mice are used as control (naïve mice). Mice were treated according to the following plan:\nFIGS. 3A-B show the locomotion activity as tested by Rota rod latency (FIG. 3A) and Rota rod distance (FIG. 3B) on day 5 of the study (5 drug administrations)."}, "[3]": {"system": "PC12 cells", "experiment": "In vitro neuroprotection assay, MPP+ induced apoptosis, MTT test", "format": "cell-based, rat", "details": "MPP+ treated PC12 cells, drugs alone or as DRA + MAO inhibitor combination", "method": "(§1) For neuroprotection experiment cells were plated (1 or 0.5×10^5 Cells per well) on poly-L-lysine (Sigma) coated 96 wells tissue culture plates. Twenty four hours after plating the medium was exchanged with fresh growth medium with or without the tested drugs in the absence or presence of stressor. Cell cytotoxicity was induced by either serum starvation or Methyl-4phenylpyridium (MPP^+), 250 uM and 125 uM for PC12 and SK cells respectively. Drugs were added in different concentration alone and in combination, 30 minutes prior to the insult for a subsequent 48 or 72 hours. Neuronal cell injury was evaluated by a colorimetric assay for mitochondrial function using the MTT test (Sigma). The MTT test is based on the conversion of MTT to blue formasan crystals by viable cells. 5 mg/ml MIT reagent was added to each well (1:10 final dilution in each well). Cells were incubated for 1 hour at 37° C. and 5% CO2. Excess MIT was removed, and remaining formasan crystals were dissolved in 50 ul DMSO and were quantified in Elisa reader. The wavelength of the measurement of formasan product was 550 nm and the reference wavelength was 620 nm.\n(§2) (a) PC12 and SK-N-SH Cells were incubated with 3 different concentrations of MPP+(125, 250, and 500 μM) or in growth medium lacking serum for 48 and 72 hours.\n(§3) (b) Various drug combinations at various drug ratios as stated above were tested. The concentrations used were as follows: ropinirole, 400 μM, 200 μM, 100 μM, 50 μM; rasagiline, 400 μM, 200 μM, 100 μM, 50 μM, 10 μM; pramipexole, 400 μM, 200 μM, 100 μM, 50 μM; selegiline, 100, 50 μM, 10 μM, 1. Cell protection was detected by MTT.\n(§4) The combinations used to treat serum-free medium induced apoptosis were ropinirole, 200 μM: rasagiline, 50 μM; ropinirole, 100 μM: rasagiline, 10 μM (FIG. 1A); pramipexole, 200 μM selegiline, 50 μM; pramipexole, 100 μM: selegiline, 10 μM (FIG. 1B); ropinirole, 200 μM: selegiline, 50 μM; and ropinirole, 100 μM: selegiline, 10 μM (FIG. 1C). […]"}, "[4]": {"system": "PC12 cells", "experiment": "In vitro neuroprotection assay, serum-free medium induced apoptosis, MTT test", "format": "cell-based, rat", "details": "serum starved PC12 cells, drugs alone or as DRA + MAO inhibitor combination", "method": "as §1, §2, §3, §4"}}, "data": [{"smiles": "CN1CC=C(c2ccccc2)CC1", "note": "[MPTP, N-methyl-4-phenyl-1,2,3,6-tetrahydropyridine]", "values": [{"measurement": "depletion in dopamine levels relative to naïve mice", "setting": "[1]; MPTP treatment alone", "value": "over 70%"}, {"measurement": "decrease in locomotion activity", "setting": "[2]", "value": "about 30%"}]}, {"smiles": "CCCN[C@H]1CCc2nc(N)sc2C1", "note": "[pramipexole]", "values": [{"measurement": "dose required to restore dopamine levels when administered alone", "setting": "[1]", "value": "higher than 1 mg/kg"}]}, {"smiles": "C#CCN[C@@H]1CCc2ccccc21", "note": "[rasagiline]", "values": [{"measurement": "neuroprotection effect / cell survival (% viable cells)", "setting": "[3]", "value": "the effect on neuroprotection was minor"}, {"measurement": "neuroprotection effect / cell survival (% viable cells)", "setting": "[4]", "value": "the effect on neuroprotection was minor"}, {"measurement": "dose required to restore dopamine levels when administered alone", "setting": "[1]", "value": "at least 0.5 mg/kg"}, {"measurement": "increase in dopamine levels", "setting": "[1]; high doses alone: 0.1 mg/kg rasagiline, 1 mg/kg pramipexole", "value": "significant but small increase"}, {"measurement": "restoration of dopamine levels", "setting": "[1]; low doses: rasagiline 0.05 mg/kg, pramipexole 0.5 mg/kg, alone or combined", "value": "did not cause a significant restoration of dopamine levels"}]}, {"smiles": "CCCN(CCC)CCc1cccc2c1CC(=O)N2", "note": "[ropinirole]", "values": [{"measurement": "neuroprotection effect / cell survival (% viable cells)", "setting": "[3]", "value": "the effect on neuroprotection was minor"}, {"measurement": "neuroprotection effect / cell survival (% viable cells)", "setting": "[4]", "value": "the effect on neuroprotection was minor"}]}, {"smiles": "C#CCN(C)[C@H](C)Cc1ccccc1", "note": "[selegiline]", "values": [{"measurement": "neuroprotection effect / cell survival (% viable cells)", "setting": "[3]", "value": "the effect on neuroprotection was minor"}, {"measurement": "neuroprotection effect / cell survival (% viable cells)", "setting": "[4]", "value": "the effect on neuroprotection was minor"}]}]}
